The values that follow come from EPA's ToxValDB 9.5 (doi:10.2903/j.efsa.2014.3742).

One series has as its system Tagia sp. The following applies: for LC50: acute.
The test system of the next series is Oncorhynchus mykiss. The following applies: for LC50: acute, duration: 96 hours, mortality; for NOEC: chronic/long-term.
A further series deals with Folsomia candida. As to conditions: chronic/long-term.
The next series concerns Colinus virginianus. The following applies: acute; oral; mortality.
In another series the test system is Daphnia magna. As to conditions: chronic/long-term; duration: 21 days.
Another series has as its system Apis mellifera. As to conditions: acute, mortality.
For the next series, the system named is Oryctolagus sp. The following applies: reproduction developmental; morphology.

Molecules are shown by their SMILES. Values after ≈ are worked out from the molar mass of the structure shown.

A word on the NOAEL: it is the highest tested level that showed no adverse finding.

With `c1nc[nH]n1` [1H-1,2,4-Triazole], the LC50 was above 1000 mg/kg in the series on Tagia sp. and 498 µg/mL (≈ 7.21 mM) with Oncorhynchus mykiss. Moreover, the NOEC is at most 1 mg/kg in the series with Tagia sp. (chronic/long-term); 3.2 mg/L in the series on Oncorhynchus mykiss (duration: 28 days, other); 1.8 mg/kg in the series with Folsomia candida.
Turning to `Nc1ncn[nH]1` [Amitrole], the LC50 is 5000 mg/kg in the series on Rattus norvegicus (acute, mortality); above 448 mg/kg in the series on Tagia sp. (duration: 14 days, mortality); above 1000 µg/mL with Oncorhynchus mykiss; above 829 mg/kg in the series on Anas platyrhynchos (short-term, duration: 5 days, oral, feed, mortality). For the same compound, the NOAEL with Rattus norvegicus (reproduction developmental) turned out to be 0.9 mg/kg-day; in the series on Rattus norvegicus (reproduction developmental, morphology), 0.12 mg/kg-day; in the series with Rattus norvegicus (subchronic, duration: 90 days, oral, histopathology: neoplastic), 0.1 mg/kg-day; in the series on Oryctolagus sp. it was 3 mg/kg-day. In addition, the LD50 in the series on Colinus virginianus was above 2150 mg/kg; with Apis mellifera (dermal), above 100 µg/piece; in the series with Apis mellifera (oral, unspecified), above 152 µg/piece. The NOEC in the series with Oncorhynchus mykiss (duration: 21 days) stood at 100 mg/L; with Daphnia magna, 0.32 mg/L; with Anas platyrhynchos (reproductive, duration: 15 months, morphology) it was 16 mg/kg-day.
